The text below walks through data of US9663789B2, “PME-1 as a biomarker to predict and diagnose endometrial and breast cancer and gene silencing of PME-1 to inhibit epithelial to mesenchymal transition” (MEDICAL DIAGNOSTIC LABORATORIES, LLC, priority 2013, dated 2017).

In data set [1] the test system is PME-1. The data set is described as follows: Western blot of PME-1 protein in RL95-2 cells. The following applies: GAPDH loading control. The data set is classed as cell-based, human. As to the method: We prepared RL95-2 cell lines expressing empty vector (control), over-expressing PME-1 (+PME-1), or expressing shRNA against PPME1, the gene that codes for PME-1 protein (−PME-1). Using these cells, we confirmed the appropriate level of PME-1 via real-time RT-PCR (data not shown) and Western blot analysis (FIG. 8). GAPDH was used as a loading control.
We also prepared two different shRNAs targeted against PME-1.
15 μg of protein was used for western analysis. PME-1 antibody (Santa Cruz) and COXIV (Cell Signaling Technologies) were used for detection of proteins and the blots were developed using chemiluminescence (Pierce ECL Western Blotting Substrate—Thermo Scientific) on the GE ImageQuant LAS 4000. For analysis of Akt, ERK, and β-catenin signaling in tissue culture, western analyses were completed as follows. RL95-2 cells stably infected with lentivirus expressing constructs were selected with puromycin (Invivogen). The cells were incubated with either 50 μM Akt inhibitor (LY 294002, Cell Signaling Technologies) or 40 μM ERK inhibitor (V0126, Cell Signaling Technologies) for 1-2 hours at 37° C. 1.5× Laemelli buffer (0.5 M Tris pH6.8, […], 10% sodium dodecyl sulfate, 100 mM EDTA) was used to prepare cell lysates. 20 μg of protein was used for western analysis. […]
On the technique in general: In western blotting, separated proteins are transferred to a membrane and probed.

Data set [2] relates to Ishikawa cells. Briefly: Trans-well migration assay. Type of data set: cell-based, human. The following applies: 24 hr, collagen, 30% FBS bottom chamber. As to the method: We next asked if PME-1 inhibition led to decreased cell migration by completing a trans-well migration assay. Cells were synchronized for 24 hours in media containing 0% FBS. For this experiment, DMSO was again used as the vehicle control and Ishikawa cells were treated with DMSO (control) or 50 nM ABL-127 or 20 μM AMZ-30 for 24 hr and were allowed to migrate through a collagen-coated well towards the bottom chamber, containing media with 30% FBS.
The assay was completed with ECC-1 endometrial carcinoma cell lines following kit instructions Cultrex 96 Well Collagen IV Cell Invasion Assay (cat #3458-096-K). Briefly, cells were serum starved for 24 hours prior to experimentation, then counted and put into the top chamber of a collagen type IV coated Transwell membrane at a concentration of 1×10^6 cells/well in 0% FBS. The bottom chamber contained 30% FBS. Cells were allowed to invade at 37° C. humid chamber incubator for 24 hours. Cells that invaded were analyzed using the kit provided Calcein-AM and fluorescence was read using FluoStar Galaxy.

In data set [3] the test system is Ishikawa cells. Briefly: Foci formation assay, Ishikawa cells. Type of data set: cell-based, human. The conditions noted are these: DMSO set to 100%. As to the method:
This study was completed in Ishikawa endometrial cancer cells.
1,000 cells were plated in a six well tissue culture dish in selection media (to include 5 μg/ml puromycin) (InvivoGen). Cells were allowed to adhere and grow in a 5% CO2, 37° C. incubator for 10 to 14 days. […] Cells were stained with 1% crystal violet (Sigma Aldrich) for five minutes and rinsed with PBS. Colonies were counted and data is presented as the percentage of change compared to the control. All Experiments were repeated at least three times.

Another data set deals with RL95-2 cells. The data set is described as follows: Colony forming / invasive growth assay in Matrigel. The following applies: RL95-2, 10 ng/ml TGF-β, 10 days. Type of data set: cell-based, human. As to the method: To determine if PME-1 contributes to the more invasive and metastatic phenotypes, we performed a colony forming assay in matrigel.
The 3D On Top Matrigel Assay was completed in 24 well dishes. Briefly, the bottoms of 24 well dishes were coated with 50 μl BD Matrigel Basement Matrix Phenol Red Free (BD Biosciences cat. #356237) and allowed to solidify at 37° C. 10^5 cells were suspended in 250 μl chilled medium containing either 10 ng/ml of TGF-b or vehicle and allowed to settle at 37° C. for 30 minutes. Chilled medium containing 10% of Matrigel was added by pipetting gently down the sidewall of the well and incubated at 37° C. for ten days changing top medium every second day. Colony counts were performed on the tenth day; averages were taken from three fields of view using a 10× objective. Experiment was repeated three times.

In data set [4] the test system is PME-1. The data set is described as follows: Quantitative real-time PCR of PME-1 expression after TGF-β treatment. Type of data set: cell-based, human. The conditions noted are these: RL95-2 control cells and +PME-1 cells, TGF-β 24 hours. As to the method:
In this study, we transfected RL95-2 cells to express empty vector (Control), over-expressing PME-1 (+PME-1) or expressing shRNA against PME-1 (−PME-1 SEQ ID NO: 2) followed by serum starvation for 24 hours. Afterwards, either vehicle or TGF-β treatment was performed at the end of the 24 hours. TGF-β was used to induce cells to initiate the EMT program. Gene expression analysis was conducted using quantitative real-time PCR.
Total RNA was extracted with Qiagen RNAEasy kit from RL95-2 cells. cDNA was synthesized using 500 ng-1 μg of RNA and SuperScript VILO c-DNA mix (Life Technologies). Taqman probes and PCR-mix were purchased from Life Technologies. All samples were run in triplicates. Results are representative of three independent experiments in which genes of interest were normalized to the house-keeping gene, 18S or GAPDH, where fold-change was calculated using the ddCt method.
For orientation: Real-time PCR tracks product formation cycle by cycle.

For the next data set, the target named is recombinant PME-1_des3 (Homo sapiens, UniProt Q9Y570). Briefly: Thermal melt (thermal shift) assay. The conditions noted are these: 50 μM ABL-127; PME-1+DMSO vehicle ˜55° C. The data set is classed as binding. As to the method: There are several commercially available covalent PME-1 inhibitors that we have analyzed as potential endometrial cancer therapeutics. To confirm that the inhibitors directly bind PME-1, we completed a thermal melt assay. One micromole (1 μmole) of recombinant PME-1_des3, of which the last 3 amino acids are deleted, were pre-incubated with SYBR orange in the presence of 50 μM ABL-127 (a potent covalent PME-1 inhibitor, squares) or 0.05% DMSO (vehicle, circles) for 10 minutes (FIG. 25) at 37° C. We then performed a thermal gradient, increasing the temperature by 2° C. each minute from 37° C. to 95° C. and fluorescent signal was detected at 492-601 nm on a thermal cycler. The increase in Tm from ˜55° C. (PME-1+DMSO, circles) to ˜65° C. (PME-1+ABL-127, squares) indicated thermal stabilization of the PME-1 protein via direct binding of the ABL-127 inhibitor (FIG. 25).
The assay was completed by first conducting a 10 min pre-incubation of one μmole of recombinant PME-1des3 with 50 μM ABL127 (Sigma) or vehicle (0.05% DMSO) in the presence of SYBR Orange (1:1,000, v/v, Sigma) at 37° C. in 1×NEB buffer 2 (50 mM NaCl, 10 mM Tris-HCl, 10 mM MgCl2, 1 mM DTT, pH 7.9 at 25° C.), a thermal gradient was performed increasing temperature by 2° C. per minute increments from 37° to 95° C. and fluorescence (492 nm-610 nm) was acquired on a thermal cycler Mx3005P (Stratagene).

Chain of recombinant PME-1_des3 (Q9Y570 1-383): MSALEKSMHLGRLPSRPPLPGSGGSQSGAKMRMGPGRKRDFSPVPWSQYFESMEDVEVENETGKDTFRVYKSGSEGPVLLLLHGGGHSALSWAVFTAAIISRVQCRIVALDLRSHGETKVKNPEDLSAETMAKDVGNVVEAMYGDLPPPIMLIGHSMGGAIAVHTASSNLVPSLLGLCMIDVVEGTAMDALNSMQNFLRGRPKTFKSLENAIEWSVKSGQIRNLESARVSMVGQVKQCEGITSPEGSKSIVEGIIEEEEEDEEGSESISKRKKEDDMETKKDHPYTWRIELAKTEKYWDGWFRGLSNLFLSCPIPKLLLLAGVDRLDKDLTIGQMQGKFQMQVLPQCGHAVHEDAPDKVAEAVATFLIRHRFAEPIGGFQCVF

“shPPME1 no. 1: shRNA against PPME1, target sequence SEQ ID NO: 1 GTACAGCTATGGATGCACTTA, bp 554-574; full hairpin SEQ ID NO: 7 (CCGGGTACAGCTATGGATGCACTTACTCGAGTAAGTGCATCCATAGCTGTACTTTTT; listed as Homo sapiens)”: the “PME-1 levels by Western blot analysis” value in the data set with PME-1 [1] was “significantly decreased PME-1 levels”.

Turning to `N#C/C(=C\c1cccn1S(=O)(=O)c1cccc([N+](=O)[O-])c1)S(=O)(=O)c1ccc(F)cc1` [AMZ-30, (E)-2-(4-Fluorophenylsulfonyl)-3-(1-(3-nitrophenylsulfonyl)-1H-pyrrol-2-yl)-acrylonitrile], the “percentage of cells capable of migrating” value with Ishikawa cells [2] (20 μM) was “dramatic decrease in the percentage of cells that are capable of migrating”. The “decrease in the amount of foci formed” value in the data set with Ishikawa cells [3] (25 μM every 2-3 days for 10 days) is roughly 50%.

Regarding TGF-β, the “colony number in Matrigel” value in the data set on RL95-2 cells is given as “overall decrease in colony number”. Besides, the “increase in PME-1 expression” value in the data set on PME-1 [4] was roughly 2 fold.

As to `COC(=O)N1C(=O)C(c2ccccc2)(C2CCCC2)N1C(=O)OC` (stereo in doubt) [ABL-127, (3R)-Dimethyl 3-cyclopentyl-4-oxo-3-phenyl-1,2-diazetidine-1,2,-dicarboxylate], in the data set with Ishikawa cells [2] (50 nM), the “percentage of cells capable of migrating” value is given as “dramatic decrease in the percentage of cells that are capable of migrating”. In the data set with Ishikawa cells [3] (50 nM every 2-3 days for 10 days), the “decrease in the amount of foci formed” value is given as roughly 50%. For the same compound, on recombinant PME-1_des3, the “Tm of PME-1 with inhibitor” value is roughly 65 °C.
